Reference: patent US8476266B2, “Phenylacetic acid compound” (Ono Pharmaceutical Co., Ltd., priority 2007, dated 2013)

Columns and labels:
DP receptor = biological target: T1, DP receptor (Homo sapiens, UniProt Q13258); assay: Measurement of DP receptor antagonistic activity using human platelet-rich plasma (PRP); inhibition of PGD2-stimulated cAMP production; format: cell-based; details: for IC50: human PRP, 3 μmol/L PGD2 stimulation; for binding activity against the DP receptor compared with the non-substituted compound (Comparative compound 1): in words
T1 construct: Blood was collected from the cubital vein of a healthy adult; endogenous in cells; host or cells: human platelets (platelet-rich plasma of a healthy adult donor)
T1 sequence (Q13258 1-359): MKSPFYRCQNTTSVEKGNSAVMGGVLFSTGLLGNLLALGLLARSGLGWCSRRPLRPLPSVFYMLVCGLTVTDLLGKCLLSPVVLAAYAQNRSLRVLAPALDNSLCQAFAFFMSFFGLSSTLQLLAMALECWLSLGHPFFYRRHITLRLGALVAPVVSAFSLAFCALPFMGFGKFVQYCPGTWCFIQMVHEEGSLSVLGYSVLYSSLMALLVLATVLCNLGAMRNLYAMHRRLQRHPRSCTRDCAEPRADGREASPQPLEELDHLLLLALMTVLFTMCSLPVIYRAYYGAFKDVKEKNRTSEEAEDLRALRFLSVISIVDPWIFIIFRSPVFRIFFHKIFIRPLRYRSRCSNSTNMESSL
Description: The collected blood was subjected to centrifugal separation at 100 G, at room temperature for 15 minutes to obtain PRP in the upper layer. EDTA was added to the obtained PRP so that the final concentration thereof to be about 10 mmol/L. The PRP was subjected to centrifugal separation at 1500 G, at room temperature for 15 minutes to obtain supernatant platelet poor plasma (PPP). After the obtained platelet pellets were suspended, the suspension was diluted with PPP so that the platelet density to be adjusted to 5.0×10^5/μL. To the obtained platelet suspension, 3-isobutyl-1-methylxanthine and prostanoid EP3 receptor antagonist were added so that the final concentrations thereof to be 8 mmol/L and 1 μmol/L, respectively.
297 μL of the prepared PRP was dispensed to each test tube, followed by subjecting to incubation at 37° C. for 5 minutes. After adding 1.5 μL of DMSO or a variety of concentrations of the compound of the present invention, 10 minutes of incubation was carried out at 37° C. 1.5 μL, of DMSO or PGD2 (final concentration: 3 μmol/L) was added thereto to initiate the reaction. After 15 minutes of incubation was carried out at 37° C., […] of ice-cooled 10% trichloroacetic acid (TCA) was added thereto to terminate the reaction. The TCA-treated sample was subjected to centrifugal separation at 15,000 G for 3 minutes at 4° C. The concentration of thus obtained supernatant cAMP was measured by enzyme immunoassay using cAMP EIA system (Amersham plc). 300 μL of the supernatant obtained above was mixed with 600 μL, of a solution of 0.5 mol/L tri-n-octylamine in chloroform. After extracting TCA in the organic layer, the cAMP content in the water layer sample was measured according to the method described in cAMP assay kit.

Human CYP3A4 = biological target: T2, Human CYP3A4 (Homo sapiens, UniProt P08684); assay: Measurement of drug-metabolizing enzyme inhibitory activity (human CYP3A4 inhibitory effect), CYP3A4 expression system microsome, 7-BQ substrate; format: in vitro ADME; details: 7-benzyloxyquinoline substrate, 37° C., 30 minutes
T2 construct: purchased BD Gentest
T2 sequence (P08684 whole entry): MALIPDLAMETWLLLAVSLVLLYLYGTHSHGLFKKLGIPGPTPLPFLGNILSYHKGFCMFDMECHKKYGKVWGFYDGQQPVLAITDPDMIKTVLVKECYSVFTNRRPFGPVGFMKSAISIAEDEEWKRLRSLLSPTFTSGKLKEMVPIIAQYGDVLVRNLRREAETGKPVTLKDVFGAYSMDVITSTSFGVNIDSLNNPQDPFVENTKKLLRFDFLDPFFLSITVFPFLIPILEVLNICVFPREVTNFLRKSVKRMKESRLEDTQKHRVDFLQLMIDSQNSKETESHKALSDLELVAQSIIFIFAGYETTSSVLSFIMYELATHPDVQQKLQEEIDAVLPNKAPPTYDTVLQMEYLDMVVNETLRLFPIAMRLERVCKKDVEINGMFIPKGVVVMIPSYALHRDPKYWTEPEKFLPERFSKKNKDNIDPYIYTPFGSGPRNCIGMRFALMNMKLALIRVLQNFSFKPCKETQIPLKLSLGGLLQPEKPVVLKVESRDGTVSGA
Description: A solution of the test compound having a concentration five hundred times more than the evaluation concentration in ethanol, or ethanol was 125-fold diluted by water. 50 μL of the test compound solution or the ethanol solution (control) was added with CYP3A4 substrate (7-benzyloxyquinoline (7-BQ), 40 μmol/L), magnesium chloride solution (5 mmol/L), and 100 μL, of 200 mM potassium phosphate buffer solution (pH 7.4) containing CYP3A4 expression system microsome (BD Gentest, 0.25 mg/mL), and preincubated at 37° C. for 10 minutes, then added with 50 μL, of reduced nicotinamide adenine dinucleotide phosphate (NADPH, final concentration 1 mmol/L) and incubated at 37° C. for 30 minutes. Immediately after the addition of NADPH, and after incubation, the fluorescence intensity was measured for 7-hydroxyquinoline which is a metabolite of the substrate (excitation wavelength 409 nm, emission wavelength 530 nm). The inhibition ratio against the control was calculated by the equation below. Inhibition rate(%)=[1-{(fluorescence intensity of the test compound after incubation−fluorescence intensity of the test compound immediately after addition of NADPH)/(fluorescence intensity of control after incubation−fluorescence intensity of control immediately after the addition of NADPH)}]×100.
IC50 was calculated from the equation below. IC50(μmol/L)=(50−(D×A−C×B)/(D−C))/((B−A)/(D−C)) • A: Highest inhibition rate (%) which is less than 50%. • B: Lowest inhibition rate (%) which is more than 50%. • C: Concentration (μmol/L) of the test compound when the inhibition rate is A. • D: Concentration (μmol/L) of the test compound when the inhibition rate is B.

[1] = biological target: T3, prostanoid receptor subtype (human EP2) (Homo sapiens, UniProt P43116); assay: Receptor binding experiment using prostanoid receptor subtype expressing cell (3H-PGE2, CHO cell membrane); details: 3H-PGE2 2.5 nM, read-out: Ki, EP2 receptor binding (3H-PGE2 binding inhibition)
T3 construct: expressed in transfected cells; host or cells: CHO cells
T3 sequence (P43116 whole entry): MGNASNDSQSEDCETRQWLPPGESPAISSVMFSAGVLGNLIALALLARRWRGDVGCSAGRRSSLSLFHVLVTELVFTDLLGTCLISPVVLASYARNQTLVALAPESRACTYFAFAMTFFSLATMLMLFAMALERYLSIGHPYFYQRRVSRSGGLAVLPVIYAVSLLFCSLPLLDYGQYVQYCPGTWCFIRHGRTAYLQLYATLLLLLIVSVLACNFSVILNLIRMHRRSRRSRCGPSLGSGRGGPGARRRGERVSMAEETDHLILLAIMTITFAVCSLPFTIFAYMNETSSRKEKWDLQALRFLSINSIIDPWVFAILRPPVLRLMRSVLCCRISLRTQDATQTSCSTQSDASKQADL
Description: According to the method of Sugimoto et. al. (J. Biol. Chem. 267, 6463-6466 (1992)), CHO cells in which prostanoid receptor subtype (human EP2) was expressed were prepared to obtain membrane preparation.
A reaction solution (200 μl) containing membrane fraction preparation (0.5 mg/ml) and ^3H-PGE2 was incubated at room temperature for one hour. The reaction was terminated by ice-cooled buffer (3 ml), bound ^3H-PGE2 was trapped on a glass filter (GF/B) by suction filtration at reduced pressure, and bound radioactivity was measured by a liquid scintillator.
The Kd value was calculated from Scatchard plots [Ann. N.Y. Acad. Sci. 51, 660 (1949)]. Nonspecific binding was determined as a bond in the presence of excessive amount (10 μM) of unlabeled PGE2. The measurement of ^3H-PGE2 binding inhibitory effect by the compound of the present invention was carried out by adding ^3H-PGE2 (2.5 nM) and the compound of the present invention at a variety of concentrations. Note that all reactions used the following buffer.
Buffer: potassium phosphate (10 mM, pH 6.0), EDTA (1 mM), MgCl2 (10 mM), NaCl (0.1 M).
Dissociation constant (Ki (μM)) of each compound was calculated from the following equation. Ki=IC50/(1+([C]/Kd) • IC50: Concentration of the compound of the present invention required for 50%-inhibition of [3H]PGE2 specific bond • C: Concentration of [3H]PGE2 • Kd: Dissociation constant of [3H]PGE2

Row | IC50 (DP receptor) [nM] | IC50 (Human CYP3A4) [nM] | Ki [1] [nM] | SMILES | binding activity against the DP receptor compared with the non-substituted compound (Comparative compound 1) (DP receptor)
1 |  | < 3000 |  | Cc1ccc(CC(=O)O)cc1NC(=O)c1c(C)cc(OC[C@@H]2CN(C)c3ccccc3O2)cc1C [Comparative compound 2, (3-((2,6-dimethyl-4-(((2S)-4-methyl-3,4-dihydro-2H-1,4-benzoxazin-2-yl)methoxy)benzoyl)amino)-4-methylphenyl)acetic acid] | more increased binding activity
2 | 4 | 19700 | 16.8 | Cc1cc(OC[C@@H]2CN(C)c3ccccc3O2)cc(C)c1C(=O)Nc1cc(CC(=O)O)ccc1Cl [Comparative compound 3, (4-chloro-3-((2,6-dimethyl-4-(((2S)-4-methyl-3,4-dihydro-2H-1,4-benzoxazin-2-yl)methoxy)benzoyl)amino)phenyl)acetic acid] | 
3 | 8.9 | 8400 |  | Cc1cc(OC[C@@H]2CN(C)c3ccccc3O2)cc(C)c1C(=O)Nc1cc(CC(=O)O)ccc1C(F)(F)F [Example 24, (3-((2,6-dimethyl-4-(((2S)-4-methyl-3,4-dihydro-2H-1,4-benzoxazin-2-yl)methoxy)benzoyl)amino)-4-(trifluoromethyl)phenyl)acetic acid] | 

More lines, now with the values behind:

Row | SMILES | IC50 (DP receptor) [nM] | IC50 (Human CYP3A4) [nM] | Ki [1] [nM] | binding activity against the DP receptor compared with the non-substituted compound (Comparative compound 1) (DP receptor)
4 | Cc1cc(OC[C@@H]2CN(C)c3ccccc3O2)cc(C)c1C(=O)Nc1cccc(CC(=O)O)c1 [Comparative compound 1, (3-((2,6-dimethyl-4-(((2S)-4-methyl-3,4-dihydro-2H-1,4-benzoxazin-2-yl)methoxy)benzoyl)amino)phenyl)acetic acid] | 21 | ≥ 30000 | 93.6 | 
5 | Cc1cc(OC[C@@H]2CN(C)c3ccccc3O2)cc(C)c1C(=O)Nc1cc(C2(C(=O)O)CC2)ccc1Cl [Comparative compound 4, 1-(4-chloro-3-((2,6-dimethyl-4-(((2S)-4-methyl-3,4-dihydro-2H-1,4-benzoxazin-2-yl)methoxy)benzoyl)amino)phenyl)cyclopropanecarboxylic acid] | 6.5 | ≥ 30000 | 1.8 | more increased binding activity
6 | Cc1cc(OC[C@@H]2CN(C)c3ccccc3O2)cc(C)c1C(=O)Nc1cc(C2(C(=O)O)CC2)ccc1C(F)(F)F [Example 12, 1-(3-((2,6-dimethyl-4-(((2S)-4-methyl-3,4-dihydro-2H-1,4-benzoxazin-2-yl)methoxy)benzoyl)amino)-4-(trifluoromethyl)phenyl)cyclopropanecarboxylic acid] | 7.1 | ≥ 30000 | 142 | 
7 | CCc1cc(OC[C@@H]2CN(C)c3ccccc3O2)cc(C)c1C(=O)Nc1cc(C2(C(=O)O)CC2)ccc1C(F)(F)F [Example 21, 1-(3-((2-ethyl-6-methyl-4-(((2S)-4-methyl-3,4-dihydro-2H-1,4-benzoxazin-2-yl)methoxy)benzoyl)amino)-4-(trifluoromethyl)phenyl)cyclopropanecarboxylic acid] | 2.9 | ≥ 30000 |  | 
